Molecules are shown by their SMILES. Counter-ions that a name gives are not always drawn.

For 17 compounds, IC50 results are on record in US20080004302A1, “Novel Compounds” (ASTRAZENECA AB, priority 2006, published 2008).

In assay [1] the target is FGFR1 kinase (Homo sapiens, UniProt P11362). Put plainly: Kinase assay (using Caliper technology). The following applies: FGFR1 kinase, Caliper; upper bound of bin; read-out: IC50. The format is biochemical. On the procedure:
To determine inhibition of FGFR activity, kinase assays were conducted using Caliper technology.
Kinase activity assays were performed in Greiner 384-well low volume plates, with a total reaction volume of 12ul per well. […] The substrate for each assay was a custom peptide with fluorescent tag (13 amino acids in length) the sequence of which was specific for FGFR1 kinase.
Compounds were serially diluted in 5% (v/v) DMSO, before being added to assay plates.
Assay plates were incubated at room temperature for 1.5 h, before the reaction was stopped with the addition of buffer [comprising: 100 mM HEPES—pH7.5, 0.033% Brij-35, 0.22% Caliper Coating Reagent #3, 88mM EDTA, 5% DMSO]. Stopped assay plates were then read using the Caliper LabChip® LC3000 (which uses microfludics to measure a shift in mobility between fluorescent labelled peptide and the FGFR1 kinase—phosphorylated form of this peptide).

Assay [2] relates to Erk phosphorylation. The assay is described as follows: Growth factor (bFGF) stimulated Erk phosphorylation in NIH 3T3 cells. To be noted: Mus musculus, NIH3T3, NIH 3T3 cells, 3 ng/ml bFGF.
From the text: These and other assays were used to evaluate the ability of a test compound to inhibit growth factor stimulated cellular signalling in mammalian cell lines. This was achieved by measuring the amount of receptor tyrosine kinase regulated Erk phosphorylation within a cell following compound treatment.
NIH 3T3 (ECACC, 93061524) cells were routinely passaged in DMEM (Gibco BRL, 41966) plus 10% foetal calf serum (FCS), 1% L-glutamine (Gibco BRL, 25030) to a confluence not greater than 80%. To undertake the assay, NIH 3T3's were seeded at 1×10^4 cells/well in DMEM plus 10% foetal calf serum, 1% L-glutamine in 96 well plates (Costar, 3904) and incubated at 37° C. (+5% CO2) in a humidified incubator. Once the cells had fully adhered (typically following 4-5 hours incubation) the media was removed from each well and the cells gently washed with 100μl warm serum free media. 90μl of serum free DMEM plus 1% L-glutamine was then added to each well and the plates were returned to a humidified 37° C. (+5% CO2) incubator. The following day, the plates were dosed with 10[l compound (diluted from 10 mM stock in DMSO using serum free DMEM) and the plates were returned to a humidified 37° C. (+5% CO2) incubator for one hour. NIH 3T3 cells were then stimulated with a final concentration of 3 ng/ml bFGF (Sigma, F029 1) for 20 minutes at 37° C. Following stimulation the cells were fixed by adding formaldehyde (4% v/v final concentration) and incubating at room temperature for 20 minutes. The fixative solution was then removed and the wells were washed twice with 100μl phosphate buffered saline (PBS/A) before permeabilising the cells by the addition of 50 μl/well 0.1% triton/PBS/A for 10 minutes at room temperature. The permeabilisation solution was then removed and the cells washed twice more with 100 μl/well PBS/A before the addition of 50 μl/well anti-phospho p44/42 (Cell Signalling Technology, 9106), diluted 1/500 with PBS/A plus 10% FCS. The anti-phospho p44/42 antibody recognises Erk phosphorylated at threonine 202 and tyrosine 204. […] Finally, the plates were washed three times with 100 μl/well PBS/A, leaving the final wash in the wells before sealing the plates. The plates were read at 350 nm and 488 nm using an Arrayscan (Cellomics).
Assay [3] has as its target T1, human IGF1R (Homo sapiens, UniProt P08069).
T1 construct: expressed in transfected cells; host or cells: R+ cells (R- mouse fibroblasts transfected with human IGF1R)
Put plainly: Inhibition of insulin-like growth factor-1 receptor phosphorylation in R+ cells. The format is cell-based. The following applies: 30 nM IGF1, read-out: IGF cell class. On the procedure:
This immunofluorescence end point cell assay measures the ability of a test compound to reduce the measured levels of IGF1R phosphorylation after IGF1 stimulation in R^+ cells. […] were derived by transfection of R^− mouse fibroblast cells with human IGF1R.
(+5% CO2) incubator for 30 minutes.
Following the compound treatment, the R^+ cells were stimulated with a final concentration of 30 nM IGF1 (Gropep 1M001) for 20 minutes at 37° C. […] Plates were incubated for 1 hour at room temperature. […] Additionally, in-house antibodies raised against phospho […] were also used at a suitable titre determined for each batch.
The plates were incubated at room temperature for one hour. […] After addition of 100 μl/well PBS the plates were sealed with a black seal.
The Green Fluorescent phospho IGF1R -associated signal in each well was measured using an Acumen Explorer HTS Reader (TTP Labtech Ltd., Cambridge). […] The instrument is a laser-scanning fluorescence microplate cytometer, which samples the well at regular intervals and uses threshold algorithms to identify all fluorescent intensities above the solution background without the need to generate and analyse an image. These fluorescent objects can be quantified and provide a measure of the phospho IGF1R levels in cells. Fluorescence dose response data obtained with each compound was exported into a suitable software package (such as Origin) to perform curve fitting analysis. Phospho-IGF1R levels in response to compound treatment versus stimulated and unstimulated controls were expressed as an IC50 value.

Assay [4] concerns the target T2, FGFR1 IIIc (Homo sapiens, UniProt P11362).
T2 construct: host or cells: Cos-1
Put plainly: Cell based inhibition of transiently expressed FGFR1 IIIc phosphorylation via use of ECHO technology (Cos-1 cells). To be noted: Cos-1 cells, phospho-FGFR1, ECHO dosing; upper bound of bin; read-out: IC50. The method, then: (§1) This assay is designed to detect inhibitors of transiently expressed FGFR1 phosphorylation by antibody staining of fixed cells detected using ArrayScan technology.
To undertake the assay, Cos-1 cells were harvested at 90-95% confluence for cell transfection. For each 96-well plate, 24μl Lipofectamine 2000 was added to 809 ul OptiMEM and incubated at room temperature for 5 minutes. […] Equal volumes of DNA and Lipofectamine 2000 were combined (DNA: Lipid=1:1.2 ratio) and incubated at room temperature for 20 minutes.
The harvested Cos-1 cells are counted using a coulter counter and diluted further with 1% FCS/DMEM to 2.5×10^5 cells/ml. For each 96-well, 8.33 ml cells were required. […] 70 μl of media was aspirated from the assay plate using the Quadra before the plate was transferred onto the ECHO 550. […] Compound transfer to the assay plate on the ECHO 550 was at concentration ranges 1)10 μM, 2) 3 μM, 3) 1 μM, 4) 0.3 μM, 5) 0.1 μM, 6) […].
The plates were gently tapped to mix compound in with the cell media and left to incubate at 37° C. with 5% CO2 for 1 hour.
Media was removed from the wells using vacuum aspiration; cells were fixed by adding 50 μl of 100% methanol to each well and incubated at room temperature for 20 minutes.
(§2) The plates were read on an Arrayscan (Cellomics).

Assay [5] deals with T2, FGFR1 IIIc. The assay is described as follows: Cell based inhibition of transiently expressed FGFR1 IIIc phosphorylation (Cos-1 cells). To be noted: Cos-1 cells, phospho-FGFR1; upper bound of bin; read-out: IC50. The method, then:
as §1
To undertake the assay, Cos-1 cells were harvested at 90-95% confluence for cell transfection. For each 96-well plate, 24 ul Lipofectamine 2000 was added to 809 ul OptiMEM and incubated at room temperature for 5 minutes. […] Equal volumes of DNA and Lipofectamine 2000 were combined (DNA: Lipid=1:1.2 ratio) and incubated at room temperature for 20 minutes.
The harvested Cos-1 cells are counted using a coulter counter and diluted further with 1% FCS/DMEM to 2.5×10^5 cells/ml. For each 96-well, 8.33 ml cells were required. […] Media was removed from the wells using vacuum aspiration; cells were fixed by adding 50μl of 100% methanol to each well and incubated at room temperature for 20 minutes.
as §2

T1 sequence (P08069 31-1367): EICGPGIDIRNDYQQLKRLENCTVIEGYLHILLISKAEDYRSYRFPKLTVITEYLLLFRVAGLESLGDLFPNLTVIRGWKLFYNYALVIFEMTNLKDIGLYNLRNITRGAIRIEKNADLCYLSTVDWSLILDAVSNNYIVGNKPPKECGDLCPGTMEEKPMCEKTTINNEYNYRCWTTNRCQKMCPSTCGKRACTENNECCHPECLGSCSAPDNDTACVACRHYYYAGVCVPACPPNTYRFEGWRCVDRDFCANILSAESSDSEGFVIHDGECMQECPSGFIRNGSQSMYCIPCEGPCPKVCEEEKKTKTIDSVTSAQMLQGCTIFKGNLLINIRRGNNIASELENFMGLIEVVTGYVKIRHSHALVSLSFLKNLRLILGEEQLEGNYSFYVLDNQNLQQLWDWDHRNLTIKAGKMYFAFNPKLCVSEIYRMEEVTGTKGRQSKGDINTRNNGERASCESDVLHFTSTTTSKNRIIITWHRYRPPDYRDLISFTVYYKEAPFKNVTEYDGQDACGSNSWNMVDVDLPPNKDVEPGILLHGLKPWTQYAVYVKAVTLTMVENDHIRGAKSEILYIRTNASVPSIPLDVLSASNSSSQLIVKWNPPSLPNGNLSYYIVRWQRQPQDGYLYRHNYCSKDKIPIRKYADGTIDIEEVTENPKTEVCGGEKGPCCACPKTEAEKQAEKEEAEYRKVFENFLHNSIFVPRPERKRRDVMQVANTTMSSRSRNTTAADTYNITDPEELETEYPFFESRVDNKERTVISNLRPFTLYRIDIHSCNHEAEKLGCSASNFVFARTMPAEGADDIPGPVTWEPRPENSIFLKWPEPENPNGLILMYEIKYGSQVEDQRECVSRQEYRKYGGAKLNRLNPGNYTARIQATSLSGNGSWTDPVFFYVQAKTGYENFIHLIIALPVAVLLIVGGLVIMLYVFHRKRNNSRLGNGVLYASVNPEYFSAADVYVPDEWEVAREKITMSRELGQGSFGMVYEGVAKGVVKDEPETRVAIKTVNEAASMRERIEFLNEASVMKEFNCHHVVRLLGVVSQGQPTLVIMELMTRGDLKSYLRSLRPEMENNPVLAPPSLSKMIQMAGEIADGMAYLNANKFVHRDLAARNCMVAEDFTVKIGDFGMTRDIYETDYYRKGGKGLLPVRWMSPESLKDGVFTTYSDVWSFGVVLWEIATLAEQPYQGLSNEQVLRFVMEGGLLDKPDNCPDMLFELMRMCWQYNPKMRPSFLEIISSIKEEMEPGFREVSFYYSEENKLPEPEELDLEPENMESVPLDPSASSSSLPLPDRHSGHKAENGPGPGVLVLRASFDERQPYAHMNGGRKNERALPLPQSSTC
T2 sequence (P11362 22-822): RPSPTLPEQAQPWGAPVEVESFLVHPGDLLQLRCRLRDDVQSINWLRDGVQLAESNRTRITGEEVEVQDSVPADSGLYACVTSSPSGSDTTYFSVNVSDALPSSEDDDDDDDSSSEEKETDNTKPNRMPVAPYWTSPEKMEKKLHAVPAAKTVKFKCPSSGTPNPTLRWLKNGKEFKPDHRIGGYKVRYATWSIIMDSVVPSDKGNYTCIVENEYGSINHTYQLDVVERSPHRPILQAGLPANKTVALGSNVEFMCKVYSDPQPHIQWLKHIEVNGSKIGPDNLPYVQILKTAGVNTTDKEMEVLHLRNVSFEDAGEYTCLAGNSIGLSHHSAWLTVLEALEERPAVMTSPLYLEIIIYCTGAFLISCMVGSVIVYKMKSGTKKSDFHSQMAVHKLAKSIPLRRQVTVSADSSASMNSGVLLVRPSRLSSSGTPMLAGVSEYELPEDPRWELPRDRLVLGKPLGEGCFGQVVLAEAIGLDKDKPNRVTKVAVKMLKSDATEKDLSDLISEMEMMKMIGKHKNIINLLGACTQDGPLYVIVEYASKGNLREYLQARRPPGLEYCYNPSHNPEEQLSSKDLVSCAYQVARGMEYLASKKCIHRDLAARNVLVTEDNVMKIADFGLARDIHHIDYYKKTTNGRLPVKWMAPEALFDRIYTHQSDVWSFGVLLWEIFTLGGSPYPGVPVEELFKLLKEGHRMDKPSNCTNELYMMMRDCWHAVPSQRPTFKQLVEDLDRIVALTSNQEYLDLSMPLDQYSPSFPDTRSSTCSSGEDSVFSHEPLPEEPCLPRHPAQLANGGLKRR
FGFR1 kinase, sequence (P11362 22-822): as above

With `COc1cc(OC)cc(OCc2cc(Nc3ccnc(NCc4cc(C)no4)n3)n[nH]2)c1` [Example 44, N′-[5-[(3,5-Dimethoxyphenoxy)methyl]-2H-pyrazol-3-yl]-N-[(3-methyl1,2-oxazol-5-yl)methyl]pyrimidine-2,4-diamine], the IC50 in assay [1] was < 0.2 µM; in assay [2], < 0.2 µM; in assay [3], > 10 µM; in assay [4], < 1 µM.
With `COc1ccc(OC)c(CCc2cc(Nc3ccnc(NCc4cc(C)no4)n3)n[nH]2)c1` [Example 45, N′-[5-[2-(2,5-dimethoxyphenyl)ethyl]-2H-pyrazol-3-yl]-N-[(3-methyl1,2-oxazol-5-yl)methyl]pyrimidine-2,4-diamine], the IC50 in assay [1] was < 1 µM; in assay [5] it was < 10 µM.
`Cc1cc(CNc2nccc(Nc3cc(CCc4cccc(N5CCOCC5)c4)[nH]n3)n2)on1` [Example 55, N-[(3-methyl1,2-oxazol-5-yl)methyl]-N′-[5-[2-(3-morpholin-4-ylphenyl)ethyl]-1H-pyrazol-3-yl]pyrimidine-2,4-diamine]: the IC50 is < 10 µM in assay [1], < 10 µM in assay [2] (upper bound of bin) and > 10 µM in assay [3].
Turning to `Cc1cc(CNc2nccc(Nc3cc(OCc4cccc(N5CCOCC5)c4)[nH]n3)n2)on1` [Example 87, N-[(3-methyl1,2-oxazol-5-yl)methyl]-N′-[5-[(3-morpholin-4-ylphenyl)methoxy]-2H-pyrazol-3-yl]pyrimidine-2,4-diamine], the results for the IC50 in assay [1], in assay [2] (upper bound of bin) and in assay [3] were < 10 µM, < 10 µM and > 10 µM, respectively.
With `Cc1cc(CNc2nccc(Nc3cc(CCc4ccco4)[nH]n3)n2)on1` [Example 107, N′-[5-[2-(2-furyl)ethyl]-2H-pyrazol-3-yl]-N-[(3-methyl1,2-oxazol-5-yl)methyl]pyrimidine-2,4-diamine], the IC50 was < 0.2 µM in assay [1], < 1 µM in assay [2] (upper bound of bin) and > 10 µM in assay [3].
As to `CNC(=O)c1cc(CNc2nccc(Nc3cc(OC(C)C)n[nH]3)n2)on1` [Example 79, N-methyl-5-[[[4-[(5-propan-2-yloxy-2H-pyrazol-3-yl)amino]pyrimidin-2-yl]amino]methyl]1,2-oxazole-3-carboxamide], the IC50 in assay [1] was < 0.2 µM; in assay [2] (upper bound of bin) it was < 10 µM; in assay [4], < 10 µM.
`Cc1cc(CNc2nccc(Nc3cc(OCc4ccc(C(F)(F)F)cc4)[nH]n3)n2)on1` [Example 96, N-[(3-methyl1,2-oxazol-5-yl)methyl]-N′-[5-[[4-(trifluoromethyl)phenyl]methoxy]-1H-pyrazol-3-yl]pyrimidine-2,4-diamine hydrochloride]: the IC50 was < 10 µM in assay [1], < 10 µM in assay [2] (upper bound of bin) and > 10 µM in assay [3].
For `CC(C)Oc1cc(Nc2ccnc(NCc3cc(-c4ncccn4)no3)n2)n[nH]1` [Example 82, N′-(5-propan-2-yloxy-2H-pyrazol-3-yl)-N-[(^3-pyrimidin-2-yl-1,2-oxazol-5-yl)methyl]pyrimidine-2,4-diamine], the values for the IC50 in assay [1], in assay [2] (upper bound of bin) and in assay [4] were < 0.2 µM, < 1 µM and < 1 µM, respectively.
In the case of `CCc1cccc(COc2cc(Nc3ccnc(NCc4cc(C)no4)n3)n[nH]2)c1` [Example 74, N′-[5-[(3-ethylphenyl)methoxy]-2H-pyrazol-3-yl]-N-[(3-methyl1,2-oxazol-5-yl)methyl]pyrimidine-2,4-diamine], the figures for the IC50 in assay [1], in assay [2] (upper bound of bin) and in assay [3] were < 10 µM, < 1 µM and > 10 µM, respectively.
For `Cc1cc(CNc2nccc(Nc3cc(OCc4cccc(C#N)c4)[nH]n3)n2)on1` [Example 92, 3-[[5-[[2-[(3-methyl1,2-oxazol-5-yl)methylamino]pyrimidin-4-yl]amino]-2H-pyrazol-3-yl]oxymethyl]benzonitrile hydrochloride], in that order: < 10 µM, < 1 µM and > 10 µM.
The corresponding values for `Cc1cc(CNc2nccc(Nc3cc(-c4cccs4)[nH]n3)n2)on1` [Example 104, N-[(3-methyl1,2-oxazol-5-yl)methyl]-N′-(5-thiophen-2-yl-1H-pyrazol-3-yl)pyrimidine-2,4-diamine] are < 1 µM, < 1 µM and 1 to 10 µM.
Regarding `Cc1cc(CNc2nccc(Nc3cc(CCc4cccnc4)[nH]n3)n2)on1` [Example 115, N-[(3-methyl1,2-oxazol-5-yl)methyl]-N′-[5-(2-pyridin-3-ylethyl)-2H-pyrazol-3-yl]pyrimidine-2,4-diamine], the IC50 in assay [1] was < 1 µM; in assay [2] (upper bound of bin), < 10 µM; in assay [3], > 10 µM.
For `Cc1cc(CNc2nccc(Nc3cc(OCc4cccc(NC(=O)OC(C)(C)C)c4)[nH]n3)n2)on1` [Example 89, tert-Butyl N-[3-[[5-[[2-[(3-methyl1,2-oxazol-5-yl)methylamino]pyrimidin-4-yl]amino]-1H-pyrazol-3-yl]oxymethyl]phenyl]carbamate], in that order: < 1 µM, < 1 µM and 1 to 10 µM.
As for `CC(C)Oc1cc(Nc2ccnc(NCc3cc(C4CCCO4)no3)n2)[nH]n1` (stereo not drawn) [Example 84, N-[[3-(oxolan-2-yl)1,2-oxazol-5-yl]methyl]-N′-(5-propan-2-yloxy-2H-pyrazol-3-yl)pyrimidine-2,4-diamine], the IC50 in assay [1] is < 0.2 µM; in assay [2], < 0.2 µM; in assay [4], < 1 µM.
Turning to `Cc1cc(CNc2nccc(Nc3cc(CCc4ccc(OCc5ccccc5)cc4)[nH]n3)n2)on1` [Example 37, N-[(3-methyl1,2-oxazol-5-yl)methyl]-N′-[5-[2-(4-phenylmethoxyphenyl)ethyl]-2H-pyrazol-3-yl]pyrimidine-2,4-diamine], the results for the IC50 in assay [1], in assay [2] (upper bound of bin) and in assay [3] were < 30 µM, < 10 µM and 1 to 10 µM, respectively.
The corresponding values for `c1ccc(OCc2cc(Nc3ccnc(NCc4cc(C5CC5)no4)n3)[nH]n2)cc1` [Example 35, N-[(3-cyclopropyl1,2-oxazol-5-yl)methyl]-N′-[5-(phenoxymethyl)-2H-pyrazol-3-yl]pyrimidine-2,4-diamine] are < 10 µM, < 1 µM and > 10 µM.
For `Cc1cc(CNc2nccc(Nc3cc(C4CCOCC4)[nH]n3)n2)on1` [Example 114, N-[(3-methyl1,2-oxazol-5-yl)methyl]-N′-[5-(oxan-4-yl)-1H-pyrazol-3-yl]pyrimidine-2,4-diamine hydrochloride], in that order: < 10 µM, < 10 µM and > 10 µM.
